Calls of active or inactive are those of the source. The rule behind the calls is not given here.
Experiments:
[1] = target: Mitogen-activated protein kinase kinase kinase 5 (Homo sapiens) (UniProt Q99683); settings: Compound concentration 1000.0 nM
[2] = target: Serine/threonine-protein kinase SIK2 (Homo sapiens) (UniProt Q9H0K1); settings: Compound concentration 1000.0 nM
[3] = target: Tyrosine-protein kinase HCK (Homo sapiens) (UniProt P08631); settings: Compound concentration 1000.0 nM
[4] = target: Vascular endothelial growth factor receptor 2 (Homo sapiens) (UniProt P35968); settings: Compound concentration 1000.0 nM
[5] = target: Casein kinase I isoform gamma-2 (Homo sapiens) (UniProt P78368); settings: Compound concentration 1000.0 nM
[6] = target: Protein kinase C epsilon type (Homo sapiens) (UniProt Q02156); settings: Compound concentration 1000.0 nM
[7] = target: Epithelial discoidin domain-containing receptor 1 (Homo sapiens) (UniProt Q08345); settings: Compound concentration 1000.0 nM
[8] = target: GABA-A receptor; anion channel (Rattus norvegicus) (UniProt O09028+P15431+P18506+P18508+P19969+P20236+P23574+P23576+P28471+P28473+P30191+P62813+P63079+P63138+Q91ZM7+Q9ES14); settings: Compound concentration 10.0 uM
[9] = target: Interferon-induced, double-stranded RNA-activated protein kinase (Homo sapiens) (UniProt P19525); settings: Compound concentration 1000.0 nM
[10] = target: Serine/threonine-protein kinase 17A (Homo sapiens) (UniProt Q9UEE5); settings: Compound concentration 1000.0 nM
[11] = target: Serine/threonine-protein kinase WNK3 (Homo sapiens) (UniProt Q9BYP7); settings: Compound concentration 1000.0 nM
[12] = target: Notch receptor (Homo sapiens, UniProt P46531+Q9UM47+Q04721+Q99466); assay: Notch assay; assay type: protein assay
[13] = system: Epidermal growth factor receptor (Homo sapiens), P00533 [UNDEFINED MUTATION]; settings: Compound concentration 1000.0 nM
[14] = target: Mitogen-activated protein kinase kinase kinase kinase 1 (Homo sapiens) (UniProt Q92918); settings: Compound concentration 1000.0 nM
[15] = target: Serine/threonine-protein kinase haspin (Homo sapiens) (UniProt Q8TF76); settings: Compound concentration 1000.0 nM
[16] = target: Serine/threonine-protein kinase PAK 6 (Homo sapiens) (UniProt Q9NQU5); settings: Compound concentration 1000.0 nM
[17] = target: Histamine H4 receptor (Homo sapiens) (UniProt Q9H3N8); settings: Compound concentration 10.0 uM
[18] = target: Ephrin type-A receptor 6 (Homo sapiens) (UniProt Q9UF33); settings: Compound concentration 1000.0 nM
[19] = system: Mast/stem cell growth factor receptor Kit (Homo sapiens), P10721 [V559D]; settings: Compound concentration 1000.0 nM
[20] = target: Vascular endothelial growth factor receptor 1 (Homo sapiens) (UniProt P17948); settings: Compound concentration 1000.0 nM
[21] = target: Amyloid-beta precursor protein (Homo sapiens, UniProt P05067); assay: Aβ40 inhibition assay
[22] = target: Phosphorylase b kinase regulatory subunit alpha, liver isoform (Homo sapiens) (UniProt P46019); settings: Compound concentration 1000.0 nM
[23] = target: Receptor-interacting serine/threonine-protein kinase 1 (Homo sapiens) (UniProt Q13546); settings: Compound concentration 1000.0 nM
[24] = target: TGF-beta receptor type-2 (Homo sapiens) (UniProt P37173); settings: Compound concentration 1000.0 nM
[25] = target: Tyrosine-protein kinase JAK1 (Homo sapiens) (UniProt P23458); settings: Compound concentration 1000.0 nM
[26] = target: Serine/threonine-protein kinase 4 (Homo sapiens) (UniProt Q13043); settings: Compound concentration 1000.0 nM
[27] = target: TRAF2 and NCK-interacting protein kinase (Homo sapiens) (UniProt Q9UKE5); settings: Compound concentration 1000.0 nM
[28] = target: Activin receptor type-2A (Homo sapiens) (UniProt P27037); settings: Compound concentration 1000.0 nM
[29] = target: Calcium/calmodulin-dependent protein kinase type 1G (Homo sapiens) (UniProt Q96NX5); settings: Compound concentration 1000.0 nM
[30] = target: Discoidin domain-containing receptor 2 (Homo sapiens) (UniProt Q16832); settings: Compound concentration 1000.0 nM
[31] = system: Receptor-type tyrosine-protein kinase FLT3 (Homo sapiens), P36888 [UNDEFINED MUTATION]; settings: Compound concentration 1000.0 nM
[32] = target: 5-hydroxytryptamine receptor 1A (Homo sapiens) (UniProt P08908); settings: Compound concentration 10.0 uM
[33] = target: Phosphatidylinositol 3-kinase catalytic subunit type 3 (Homo sapiens) (UniProt Q8NEB9); settings: Compound concentration 1000.0 nM
[34] = target: Insulin receptor-related protein (Homo sapiens) (UniProt P14616); settings: Compound concentration 1000.0 nM
[35] = target: Serine/threonine-protein kinase 35 (Homo sapiens) (UniProt Q8TDR2); settings: Compound concentration 1000.0 nM
[36] = target: SNF-related serine/threonine-protein kinase (Homo sapiens) (UniProt Q9NRH2); settings: Compound concentration 1000.0 nM
[37] = target: Cyclin-dependent kinase 5 (Homo sapiens) (UniProt Q00535); settings: Compound concentration 1000.0 nM
[38] = target: Calcium/calmodulin-dependent protein kinase type II subunit delta (Homo sapiens) (UniProt Q13557); settings: Compound concentration 1000.0 nM
[39] = target: Cyclin-dependent kinase 11B (Homo sapiens) (UniProt P21127); settings: Compound concentration 1000.0 nM
[40] = target: Mitotic checkpoint serine/threonine-protein kinase BUB1 (Homo sapiens) (UniProt O43683); settings: Compound concentration 1000.0 nM
[41] = target: Receptor-type tyrosine-protein kinase FLT3 (Homo sapiens) (UniProt P36888); settings: Compound concentration 1000.0 nM
[42] = target: Rho-associated protein kinase 2 (Homo sapiens) (UniProt O75116); settings: Compound concentration 1000.0 nM
[43] = target: Dual specificity protein kinase CLK3 (Homo sapiens) (UniProt P49761); settings: Compound concentration 1000.0 nM
[44] = target: Misshapen-like kinase 1 (Homo sapiens) (UniProt Q8N4C8); settings: Compound concentration 1000.0 nM

Chain of Mitogen-activated protein kinase kinase kinase 5 (Homo sapiens) (Q99683 whole entry): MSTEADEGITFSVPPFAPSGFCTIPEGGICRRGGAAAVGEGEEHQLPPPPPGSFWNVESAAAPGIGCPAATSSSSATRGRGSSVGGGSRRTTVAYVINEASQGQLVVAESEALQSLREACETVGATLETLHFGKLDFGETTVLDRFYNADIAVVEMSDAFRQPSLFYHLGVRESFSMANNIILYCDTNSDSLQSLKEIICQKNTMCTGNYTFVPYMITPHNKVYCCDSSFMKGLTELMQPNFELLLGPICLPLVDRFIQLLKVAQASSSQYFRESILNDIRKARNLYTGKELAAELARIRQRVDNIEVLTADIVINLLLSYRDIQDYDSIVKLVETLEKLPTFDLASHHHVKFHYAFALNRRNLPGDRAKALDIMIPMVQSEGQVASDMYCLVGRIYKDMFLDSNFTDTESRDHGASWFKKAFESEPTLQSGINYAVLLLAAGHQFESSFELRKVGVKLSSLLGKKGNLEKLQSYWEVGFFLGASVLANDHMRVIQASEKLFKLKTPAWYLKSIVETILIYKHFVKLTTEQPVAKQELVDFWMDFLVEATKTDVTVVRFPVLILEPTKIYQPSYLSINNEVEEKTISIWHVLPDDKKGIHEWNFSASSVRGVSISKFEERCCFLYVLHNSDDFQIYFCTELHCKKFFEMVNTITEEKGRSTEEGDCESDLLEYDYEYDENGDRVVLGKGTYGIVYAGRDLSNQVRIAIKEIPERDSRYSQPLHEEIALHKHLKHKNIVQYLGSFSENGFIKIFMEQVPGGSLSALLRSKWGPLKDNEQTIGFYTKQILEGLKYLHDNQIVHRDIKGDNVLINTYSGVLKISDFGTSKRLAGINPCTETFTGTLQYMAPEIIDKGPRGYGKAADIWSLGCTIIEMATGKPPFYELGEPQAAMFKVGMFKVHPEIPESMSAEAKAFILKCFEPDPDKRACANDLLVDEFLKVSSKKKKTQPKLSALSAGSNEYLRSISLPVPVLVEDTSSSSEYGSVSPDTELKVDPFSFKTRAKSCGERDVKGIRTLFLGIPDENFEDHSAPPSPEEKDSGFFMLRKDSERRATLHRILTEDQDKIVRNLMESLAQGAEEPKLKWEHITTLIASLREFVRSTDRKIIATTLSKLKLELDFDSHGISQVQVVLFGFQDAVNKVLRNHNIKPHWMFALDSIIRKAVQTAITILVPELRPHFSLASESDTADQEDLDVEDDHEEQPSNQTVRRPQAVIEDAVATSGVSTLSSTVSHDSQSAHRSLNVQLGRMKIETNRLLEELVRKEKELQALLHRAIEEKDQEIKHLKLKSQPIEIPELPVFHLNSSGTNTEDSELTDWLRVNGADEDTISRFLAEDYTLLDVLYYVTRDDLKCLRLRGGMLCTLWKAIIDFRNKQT
Chain of 5-hydroxytryptamine receptor 1A (Homo sapiens) (P08908 whole entry): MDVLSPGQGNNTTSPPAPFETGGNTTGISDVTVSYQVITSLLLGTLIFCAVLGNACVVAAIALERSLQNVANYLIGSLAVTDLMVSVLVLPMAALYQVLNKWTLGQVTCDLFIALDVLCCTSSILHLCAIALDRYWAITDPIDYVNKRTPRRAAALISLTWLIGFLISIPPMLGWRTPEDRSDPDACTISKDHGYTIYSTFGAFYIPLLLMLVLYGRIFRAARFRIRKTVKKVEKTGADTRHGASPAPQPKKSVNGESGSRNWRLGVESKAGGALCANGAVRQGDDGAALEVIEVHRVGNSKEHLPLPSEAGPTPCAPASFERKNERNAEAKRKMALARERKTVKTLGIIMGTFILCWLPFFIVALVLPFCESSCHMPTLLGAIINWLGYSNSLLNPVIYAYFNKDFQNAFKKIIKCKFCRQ
Chain of Receptor-type tyrosine-protein kinase FLT3 (Homo sapiens) (P36888 whole entry): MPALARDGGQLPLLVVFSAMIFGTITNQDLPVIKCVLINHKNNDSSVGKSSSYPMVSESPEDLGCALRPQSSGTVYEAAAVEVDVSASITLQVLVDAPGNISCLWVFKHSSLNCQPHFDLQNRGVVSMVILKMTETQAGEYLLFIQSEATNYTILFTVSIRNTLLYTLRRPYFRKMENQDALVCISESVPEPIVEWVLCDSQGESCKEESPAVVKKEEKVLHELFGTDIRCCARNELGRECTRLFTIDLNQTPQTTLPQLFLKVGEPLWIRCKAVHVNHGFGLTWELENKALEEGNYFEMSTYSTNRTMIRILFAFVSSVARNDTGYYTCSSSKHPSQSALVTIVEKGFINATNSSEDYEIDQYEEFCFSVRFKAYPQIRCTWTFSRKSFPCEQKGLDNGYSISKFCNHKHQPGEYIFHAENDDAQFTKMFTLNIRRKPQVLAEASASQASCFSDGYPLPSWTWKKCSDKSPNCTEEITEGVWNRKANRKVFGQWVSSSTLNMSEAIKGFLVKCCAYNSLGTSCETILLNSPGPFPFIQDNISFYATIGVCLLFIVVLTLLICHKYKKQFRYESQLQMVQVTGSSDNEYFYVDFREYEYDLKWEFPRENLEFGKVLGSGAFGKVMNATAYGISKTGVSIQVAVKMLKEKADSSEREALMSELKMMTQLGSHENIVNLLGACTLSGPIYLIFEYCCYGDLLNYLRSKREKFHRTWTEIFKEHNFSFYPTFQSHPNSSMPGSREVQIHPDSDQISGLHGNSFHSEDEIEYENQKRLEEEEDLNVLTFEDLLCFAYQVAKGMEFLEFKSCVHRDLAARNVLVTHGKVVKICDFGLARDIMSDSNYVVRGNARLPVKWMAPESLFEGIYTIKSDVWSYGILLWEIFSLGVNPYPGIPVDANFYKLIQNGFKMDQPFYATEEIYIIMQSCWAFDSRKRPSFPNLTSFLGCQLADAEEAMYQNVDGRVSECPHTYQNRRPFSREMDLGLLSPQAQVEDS
Chain of Receptor-type tyrosine-protein kinase FLT3 (Homo sapiens), P36888 [UNDEFINED MUTATION] (P36888 whole entry, looked up, change not shown): as the sequence (P36888 whole entry) above
Chain of Serine/threonine-protein kinase 35 (Homo sapiens) (Q8TDR2 whole entry): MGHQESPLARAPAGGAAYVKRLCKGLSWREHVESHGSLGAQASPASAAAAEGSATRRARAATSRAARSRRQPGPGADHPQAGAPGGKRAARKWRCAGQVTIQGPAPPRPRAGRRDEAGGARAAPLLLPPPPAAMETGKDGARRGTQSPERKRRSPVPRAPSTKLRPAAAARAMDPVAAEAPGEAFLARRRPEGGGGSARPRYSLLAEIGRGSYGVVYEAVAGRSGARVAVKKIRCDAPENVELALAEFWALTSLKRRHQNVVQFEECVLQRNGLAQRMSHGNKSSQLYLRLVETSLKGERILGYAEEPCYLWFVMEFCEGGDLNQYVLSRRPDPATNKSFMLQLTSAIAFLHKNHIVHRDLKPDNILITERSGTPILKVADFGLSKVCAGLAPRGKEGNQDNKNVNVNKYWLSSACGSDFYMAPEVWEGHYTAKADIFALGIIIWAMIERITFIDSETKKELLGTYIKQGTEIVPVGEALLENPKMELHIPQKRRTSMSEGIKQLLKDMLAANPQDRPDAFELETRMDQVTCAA
Chain of Mast/stem cell growth factor receptor Kit (Homo sapiens), P10721 [V559D] (P10721 whole entry V559D): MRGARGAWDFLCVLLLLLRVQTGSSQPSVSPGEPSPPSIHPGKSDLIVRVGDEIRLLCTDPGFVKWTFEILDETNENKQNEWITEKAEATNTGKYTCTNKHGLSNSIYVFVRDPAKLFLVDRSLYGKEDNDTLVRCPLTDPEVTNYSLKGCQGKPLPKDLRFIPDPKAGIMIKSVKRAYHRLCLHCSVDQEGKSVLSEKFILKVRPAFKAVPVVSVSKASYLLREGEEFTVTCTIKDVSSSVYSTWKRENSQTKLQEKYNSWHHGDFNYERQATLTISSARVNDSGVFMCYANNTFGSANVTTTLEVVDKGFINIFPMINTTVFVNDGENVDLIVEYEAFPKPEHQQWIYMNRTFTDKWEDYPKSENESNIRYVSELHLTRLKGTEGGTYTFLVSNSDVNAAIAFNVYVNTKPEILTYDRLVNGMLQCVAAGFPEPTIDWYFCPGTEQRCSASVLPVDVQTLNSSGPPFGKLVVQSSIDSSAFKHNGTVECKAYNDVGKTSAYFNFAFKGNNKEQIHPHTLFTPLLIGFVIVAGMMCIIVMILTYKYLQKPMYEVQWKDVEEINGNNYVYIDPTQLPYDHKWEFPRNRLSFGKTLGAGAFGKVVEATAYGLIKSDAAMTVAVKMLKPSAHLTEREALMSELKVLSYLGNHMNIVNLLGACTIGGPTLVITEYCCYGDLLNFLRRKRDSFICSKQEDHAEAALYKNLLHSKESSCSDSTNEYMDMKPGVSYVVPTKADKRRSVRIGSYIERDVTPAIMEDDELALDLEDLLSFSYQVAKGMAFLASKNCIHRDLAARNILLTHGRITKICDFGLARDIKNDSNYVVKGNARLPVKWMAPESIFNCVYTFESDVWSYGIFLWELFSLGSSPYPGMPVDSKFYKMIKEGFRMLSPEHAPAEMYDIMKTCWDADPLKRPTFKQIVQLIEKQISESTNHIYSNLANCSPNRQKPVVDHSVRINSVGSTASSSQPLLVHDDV
Chain of Serine/threonine-protein kinase 4 (Homo sapiens) (Q13043 whole entry): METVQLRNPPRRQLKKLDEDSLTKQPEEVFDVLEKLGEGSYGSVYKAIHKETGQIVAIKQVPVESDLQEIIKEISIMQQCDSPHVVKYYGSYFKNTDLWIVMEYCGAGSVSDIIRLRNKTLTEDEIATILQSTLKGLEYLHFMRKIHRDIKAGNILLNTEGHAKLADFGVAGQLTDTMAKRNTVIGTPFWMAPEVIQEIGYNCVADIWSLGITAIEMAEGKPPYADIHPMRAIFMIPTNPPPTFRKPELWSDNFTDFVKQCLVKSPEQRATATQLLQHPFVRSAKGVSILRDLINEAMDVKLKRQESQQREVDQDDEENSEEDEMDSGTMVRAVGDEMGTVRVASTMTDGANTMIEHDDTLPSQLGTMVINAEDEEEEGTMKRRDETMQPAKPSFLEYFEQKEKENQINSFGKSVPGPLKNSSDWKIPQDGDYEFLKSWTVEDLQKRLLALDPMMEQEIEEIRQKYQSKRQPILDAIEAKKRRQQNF

Question: COc1cc(-c2cn([C@H]3CCc4c(F)cccc4N(CC(F)(F)F)C3=O)nn2)ccc1-n1cnc(C)c1 was tested. Which residual activity [1] did it give?
Answer: 100%

Question: And the residual activity [2]?
Answer: 100%

Question: What about the residual activity [3] of the same molecule?
Answer: 100%

Question: What about the residual activity [4] of the same molecule?
Answer: 100%

Question: What about the residual activity [5] of the same molecule?
Answer: 100%

Question: And the residual activity [6]?
Answer: 100%

Question: What about the residual activity [7] of the same molecule?
Answer: 100%

Question: And the inhibition [8]?
Answer: 28.6%

Question: What about the residual activity [9] of the same molecule?
Answer: 100%

Question: What about the residual activity [10] of the same molecule?
Answer: 100%

Question: And the residual activity [11]?
Answer: 100%

Question: What about the IC50 [12] of the same molecule?
Answer: 397.8 µM

Question: And the residual activity [13]?
Answer: 96%

Question: What about the residual activity [14] of the same molecule?
Answer: 100%

Question: What about the residual activity [15] of the same molecule?
Answer: 87%

Question: What about the residual activity [16] of the same molecule?
Answer: 100%

Question: And the inhibition [17]?
Answer: -2.49%

Question: What about the residual activity [18] of the same molecule?
Answer: 100%

Question: What about the residual activity [19] of the same molecule?
Answer: 100%

Question: And the residual activity [20]?
Answer: 97%

Question: And the IC50 [21]?
Answer: 0.131 µM (active)

Question: And the residual activity [22]?
Answer: 100%

Question: And the residual activity [23]?
Answer: 100%

Question: And the residual activity [24]?
Answer: 100%

Question: What about the residual activity [25] of the same molecule?
Answer: 100%

Question: What about the residual activity [26] of the same molecule?
Answer: 100%

Question: And the residual activity [27]?
Answer: 94%

Question: What about the residual activity [28] of the same molecule?
Answer: 0%

Question: What about the residual activity [29] of the same molecule?
Answer: 100%

Question: What about the residual activity [30] of the same molecule?
Answer: 100%

Question: And the residual activity [31]?
Answer: 100%

Question: What about the inhibition [32] of the same molecule?
Answer: 19.4%

Question: What about the residual activity [33] of the same molecule?
Answer: 100%

Question: What about the residual activity [34] of the same molecule?
Answer: 100%

Question: What about the residual activity [35] of the same molecule?
Answer: 100%

Question: What about the residual activity [36] of the same molecule?
Answer: 100%

Question: And the residual activity [37]?
Answer: 100%

Question: And the residual activity [38]?
Answer: 100%

Question: And the residual activity [39]?
Answer: 95%

Question: What about the residual activity [40] of the same molecule?
Answer: 100%

Question: And the residual activity [41]?
Answer: 89%

Question: What about the residual activity [42] of the same molecule?
Answer: 100%

Question: And the residual activity [43]?
Answer: 83%

Question: And the residual activity [44]?
Answer: 84%

Question: Which residual activity [1] does the source give for COc1cc(-c2cn([C@H]3CCc4ccccc4N(CC(F)(F)F)C3=O)nn2)ccc1-n1ccc(C)n1 here?
Answer: 100%

Question: And the residual activity [2]?
Answer: 100%

Question: What about the residual activity [3] of the same molecule?
Answer: 100%

Question: And the residual activity [4]?
Answer: 79%

Question: And the residual activity [5]?
Answer: 100%

Question: What about the residual activity [6] of the same molecule?
Answer: 100%

Question: What about the residual activity [7] of the same molecule?
Answer: 100%

Question: And the inhibition [8]?
Answer: 0.92%

Question: What about the residual activity [9] of the same molecule?
Answer: 87%

Question: What about the residual activity [10] of the same molecule?
Answer: 100%

Question: What about the residual activity [11] of the same molecule?
Answer: 100%

Question: And the IC50 [12]?
Answer: > 50 µM

Question: And the residual activity [13]?
Answer: 100%

Question: And the residual activity [14]?
Answer: 100%

Question: What about the residual activity [15] of the same molecule?
Answer: 83%

Question: What about the residual activity [16] of the same molecule?
Answer: 100%

Question: And the inhibition [17]?
Answer: 9.63%

Question: What about the residual activity [18] of the same molecule?
Answer: 98%

Question: And the residual activity [19]?
Answer: 96%

Question: And the residual activity [20]?
Answer: 100%

Question: And the IC50 [21]?
Answer: > 10 µM (not active)

Question: What about the residual activity [22] of the same molecule?
Answer: 100%

Question: What about the residual activity [23] of the same molecule?
Answer: 100%

Question: What about the residual activity [24] of the same molecule?
Answer: 100%

Question: And the residual activity [25]?
Answer: 87%

Question: What about the residual activity [26] of the same molecule?
Answer: 100%

Question: What about the residual activity [27] of the same molecule?
Answer: 81%

Question: What about the residual activity [28] of the same molecule?
Answer: 100%

Question: What about the residual activity [29] of the same molecule?
Answer: 100%

Question: And the residual activity [30]?
Answer: 99%

Question: And the residual activity [31]?
Answer: 98%

Question: And the inhibition [32]?
Answer: 1.18%

Question: And the residual activity [33]?
Answer: 100%

Question: What about the residual activity [34] of the same molecule?
Answer: 100%

Question: And the residual activity [35]?
Answer: 100%

Question: And the residual activity [36]?
Answer: 99%

Question: And the residual activity [37]?
Answer: 100%

Question: And the residual activity [38]?
Answer: 100%

Question: What about the residual activity [39] of the same molecule?
Answer: 100%

Question: What about the residual activity [40] of the same molecule?
Answer: 94%

Question: And the residual activity [41]?
Answer: 85%

Question: And the residual activity [42]?
Answer: 100%

Question: What about the residual activity [43] of the same molecule?
Answer: 95%

Question: What about the residual activity [44] of the same molecule?
Answer: 100%
